Measured values published in PubChem BioAssay AID2060491 (Molecular Pharmacology Branch, DTP, NCI, 2025).

Tested on: 857933-349-R-J2-PDC complex spheroids, viability
Assay: Anticancer human tumor 857933-349-R-J2-PDC patient-derived colon adenocarcinoma cell line growth inhibition [GQUAD]
Conditions: for IC50: curve of first compound; for viability, T/C: stronger effect = lower value
Outline: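 Multi-cell-type spheroids of tumor cells with HUVEC and mesenchymal stem cells, treated with drug combinations. Concentrations descend in half-log steps from near clinical Cmax, or from 10 microM where Cmax is unknown; viability read-out.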

[1] = second compound 0.0316 µM, first compound 0.0316 µM
[2] = second compound 0.0316 µM, first compound 0.316 µM
[3] = second compound 0.1 µM, first compound 0.0316 µM
[4] = second compound 0.1 µM, first compound 0.316 µM
[5] = second compound 0.316 µM, first compound 0.0316 µM
[6] = second compound 0.316 µM, first compound 0.316 µM
[7] = second compound 1 µM, first compound 0.0316 µM
[8] = second compound 1 µM, first compound 0.316 µM
[9] = second compound 3.16 µM, first compound 0.0316 µM
[10] = second compound 3.16 µM, first compound 0.316 µM
[11] = second compound 10 µM, first compound 0.0316 µM
[12] = second compound 10 µM, first compound 0.316 µM
[13] = second compound 0.0316 µM, first compound 0.1 µM
[14] = second compound 0.0316 µM, first compound 1 µM
[15] = second compound 0.0316 µM, first compound 3.16 µM
[16] = second compound 0.0316 µM, first compound 10 µM
[17] = second compound 0.1 µM, first compound 0.1 µM
[18] = second compound 0.1 µM, first compound 1 µM
[19] = second compound 0.1 µM, first compound 3.16 µM
[20] = second compound 0.1 µM, first compound 10 µM
[21] = second compound 0.316 µM, first compound 0.1 µM
[22] = second compound 0.316 µM, first compound 1 µM
[23] = second compound 0.316 µM, first compound 3.16 µM
[24] = second compound 0.316 µM, first compound 10 µM
[25] = second compound 1 µM, first compound 0.1 µM
[26] = second compound 1 µM, first compound 1 µM
[27] = second compound 1 µM, first compound 3.16 µM
[28] = second compound 1 µM, first compound 10 µM
[29] = second compound 3.16 µM, first compound 0.1 µM
[30] = second compound 3.16 µM, first compound 1 µM
[31] = second compound 3.16 µM, first compound 3.16 µM
[32] = second compound 3.16 µM, first compound 10 µM
[33] = second compound 10 µM, first compound 0.1 µM
[34] = second compound 10 µM, first compound 1 µM
[35] = second compound 10 µM, first compound 3.16 µM
[36] = second compound 10 µM, first compound 10 µM
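Also: spheroids exposed to compounds for one week before readout.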
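For viability, T/C in this document: percent viability relative to vehicle DMSO wells taken as 100%.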

Cc1[nH]c2ccccc2c1CCNCc1ccc(/C=C/C(=O)NO)cc1 + Cc1[nH]c2ccc(F)cc2c1-c1nc2c3cccnc3c3ncccc3c2[nH]1
IC50 (second compound 0.0316 µM): > 0.316 µM | IC50 (second compound 0.1 µM): > 0.316 µM | IC50 (second compound 0.316 µM): > 0.316 µM | IC50 (second compound 1 µM): > 0.316 µM | IC50 (second compound 3.16 µM): > 0.316 µM | IC50 (second compound 10 µM): > 0.316 µM | viability, T/C (second compound 0.0316 µM, first compound 0.000999 µM): 103% | viability, T/C (second compound 0.0316 µM, first compound 0.00316 µM): 95.8% | viability, T/C (second compound 0.0316 µM, first compound 0.00999 µM): 97.6% | viability, T/C [1]: 104% | viability, T/C (second compound 0.0316 µM, first compound 0.0999 µM): 94% | viability, T/C [2]: 59.1% | viability, T/C (second compound 0.1 µM, first compound 0.000999 µM): 104% | viability, T/C (second compound 0.1 µM, first compound 0.00316 µM): 101% | viability, T/C (second compound 0.1 µM, first compound 0.00999 µM): 102% | viability, T/C [3]: 106% | viability, T/C (second compound 0.1 µM, first compound 0.0999 µM): 99.7% | viability, T/C [4]: 60.7% | viability, T/C (second compound 0.316 µM, first compound 0.000999 µM): 101% | viability, T/C (second compound 0.316 µM, first compound 0.00316 µM): 104% | viability, T/C (second compound 0.316 µM, first compound 0.00999 µM): 96% | viability, T/C [5]: 92.8% | viability, T/C (second compound 0.316 µM, first compound 0.0999 µM): 107% | viability, T/C [6]: 59.2% | viability, T/C (second compound 1 µM, first compound 0.000999 µM): 109% | viability, T/C (second compound 1 µM, first compound 0.00316 µM): 90% | viability, T/C (second compound 1 µM, first compound 0.00999 µM): 93.7% | viability, T/C [7]: 97.7% | viability, T/C (second compound 1 µM, first compound 0.0999 µM): 105% | viability, T/C [8]: 61.4% | viability, T/C (second compound 3.16 µM, first compound 0.000999 µM): 90.8% | viability, T/C (second compound 3.16 µM, first compound 0.00316 µM): 79.8% | viability, T/C (second compound 3.16 µM, first compound 0.00999 µM): 86.2% | viability, T/C [9]: 88% | viability, T/C (second compound 3.16 µM, first compound 0.0999 µM): 104% | viability, T/C [10]: 66.8% | viability, T/C (second compound 10 µM, first compound 0.000999 µM): 87% | viability, T/C (second compound 10 µM, first compound 0.00316 µM): 89.4% | viability, T/C (second compound 10 µM, first compound 0.00999 µM): 88.1% | viability, T/C [11]: 95.3% | viability, T/C (second compound 10 µM, first compound 0.0999 µM): 105% | viability, T/C [12]: 61%

CC1COCCN1c1cc(C2(S(C)(=N)=O)CC2)nc(-c2ccnc3[nH]ccc23)n1 (stereo unspecified) + CN(C)c1ccc(Nc2c3ccc(NC(=O)CCN4CCCC4)cc3nc3cc(NC(=O)CCN4CCCC4)ccc23)cc1
IC50 (second compound 0.0316 µM): > 10 µM | IC50 (second compound 0.1 µM): > 10 µM | IC50 (second compound 0.316 µM): > 10 µM | IC50 (second compound 1 µM): > 10 µM | IC50 (second compound 3.16 µM): > 10 µM | IC50 (second compound 10 µM): > 10 µM | viability, T/C [1]: 104% | viability, T/C [13]: 108% | viability, T/C [2]: 102% | viability, T/C [14]: 87.7% | viability, T/C [15]: 82.4% | viability, T/C [16]: 63.2% | viability, T/C [3]: 106% | viability, T/C [17]: 102% | viability, T/C [4]: 101% | viability, T/C [18]: 94.9% | viability, T/C [19]: 75.1% | viability, T/C [20]: 69.2% | viability, T/C [5]: 103% | viability, T/C [21]: 99.1% | viability, T/C [6]: 97.8% | viability, T/C [22]: 88.8% | viability, T/C [23]: 86.6% | viability, T/C [24]: 66.1% | viability, T/C [7]: 99.2% | viability, T/C [25]: 94.6% | viability, T/C [8]: 96.4% | viability, T/C [26]: 88% | viability, T/C [27]: 82.5% | viability, T/C [28]: 62.7% | viability, T/C [9]: 92.3% | viability, T/C [29]: 84.9% | viability, T/C [10]: 94.8% | viability, T/C [30]: 81.2% | viability, T/C [31]: 81.6% | viability, T/C [32]: 59.6% | viability, T/C [11]: 70.8% | viability, T/C [33]: 76.8% | viability, T/C [12]: 77.5% | viability, T/C [34]: 78% | viability, T/C [35]: 69.8% | viability, T/C [36]: 61.4%

CCCS(=O)(=O)Nc1ccc(F)c(C(=O)c2c[nH]c3ncc(-c4ccc(Cl)cc4)cc23)c1F + CN(C)c1ccc(Nc2c3ccc(NC(=O)CCN4CCCC4)cc3nc3cc(NC(=O)CCN4CCCC4)ccc23)cc1
IC50 (second compound 0.0316 µM): 5.65 µM | IC50 (second compound 0.1 µM): 5.53 µM | IC50 (second compound 0.316 µM): 5.65 µM | IC50 (second compound 1 µM): 5.45 µM | IC50 (second compound 3.16 µM): 5.03 µM | IC50 (second compound 10 µM): 3.18 µM | viability, T/C [1]: 108% | viability, T/C [13]: 101% | viability, T/C [2]: 102% | viability, T/C [14]: 96.8% | viability, T/C [15]: 95.5% | viability, T/C [16]: 5.26% | viability, T/C [3]: 110% | viability, T/C [17]: 106% | viability, T/C [4]: 96.4% | viability, T/C [18]: 106% | viability, T/C [19]: 92.5% | viability, T/C [20]: 5.04% | viability, T/C [5]: 104% | viability, T/C [21]: 101% | viability, T/C [6]: 96.5% | viability, T/C [22]: 96.7% | viability, T/C [23]: 95.3% | viability, T/C [24]: 5.41% | viability, T/C [7]: 101% | viability, T/C [25]: 89.6% | viability, T/C [8]: 96.7% | viability, T/C [26]: 93.1% | viability, T/C [27]: 89.9% | viability, T/C [28]: 5.58% | viability, T/C [9]: 83.5% | viability, T/C [29]: 73.5% | viability, T/C [10]: 81.2% | viability, T/C [30]: 75.8% | viability, T/C [31]: 79.7% | viability, T/C [32]: 7.65% | viability, T/C [11]: 63.1% | viability, T/C [33]: 66.5% | viability, T/C [12]: 56.8% | viability, T/C [34]: 59.1% | viability, T/C [35]: 51% | viability, T/C [36]: 12.3%
